Consider three compounds from patent US20080188494A1 (priority 2005, published 2008).

SMILES strings stand for the structures.

Series [1] relates to Plasmopara viticola. Description: Activity against peronospora of grapevines caused by Plasmopara viticola (Use Example 3). In kind it is in vivo. Particulars: 250 ppm, potted vines sprayed to runoff, inoculated next day; untreated plants 90% infected. As for the experimental part:
(§1) The active compounds were prepared as a stock solution comprising 25 mg of active compound which was made up to 10 ml using a mixture of acetone and/or DMSO and the emulsifier Uniperol® EL (wetting agent having emulsifying and dispersing action based on ethoxylated alkylphenols) in a volume ratio of solvent/emulsifier of 99/1. The mixture was then made up to 100 ml with water. This stock solution was diluted with the solvent/emulsifier/water mixture described to the concentration of active compounds stated below.
(§2) Leaves of potted vines were sprayed to runoff point with an aqueous suspension having the concentration of active compounds stated below. The next day, the undersides of the leaves were inoculated with an aqueous sporangia suspension of Plasmopara viticola. The vines were then initially placed in a water-vapor-saturated chamber at 24° C. for 48 hours and then in a greenhouse at temperatures between 20° C. and 30° C. for 5 days. After this time, the plants were once more placed in a humid chamber for 16 hours to accelerate the eruption of sporangiospores. The extent of the development of the infection on the undersides of the leaves was then determined visually.

For series [2], the system named is Plasmopara viticola. Description: Activity against peronospora of grapevines caused by Plasmopara viticola (Comparative Example 1, inoculation next day). In kind it is in vivo. Conditions: 250 ppm, potted vines sprayed to runoff, inoculated next day; untreated plants 90% infected. As for the experimental part:
as §1, §2

Series [3] relates to Plasmopara viticola. Description: Activity against peronospora of grapevines caused by Plasmopara viticola, 7 day protective treatment (Comparative Example 2). In kind it is in vivo. Particulars: 250 ppm, potted vines, inoculated 7 days after spraying; untreated plants 90% infected. As for the experimental part:
as §1
Leaves of potted vines were sprayed to runoff point with an aqueous suspension having the concentration of active compounds stated below. To be able to assess the persistency of the substances, the plants were, after the spray coating had dried on, placed in a greenhouse for 7 days. Only then were the leaves inoculated with an aqueous zoospore suspension of Plasmopara viticola. The vines were then initially placed in a water-vapor-saturated chamber at 24° C. for 48 hours and then in a greenhouse at temperatures between 20 and 30° C. for 5 days. After this time, the plants were once more placed in a humid chamber to accelerate the eruption of sporangiospores. The extent of the development of the infection on the undersides of the leaves was then determined visually.

For orientation: melting point means the temperature of the solid-liquid transition. `CCCc1nc2ncnn2c(N)c1CCc1ccccc1` [I-2, 7-amino-6-(2-phenylethyl)-5-propyl-(1,2,4)-triazolo-(1,5-a)-pyrimidine]: the melting point lay in the range of 190 to 191 °C. Besides, the “infection of the plants (undersides of leaves, determined visually)” value (“infection of the plants” below) in series [1] was “no infection”.

As to `Cc1nc2ncnn2c(N)c1CCCc1ccccc1` [Compound A], the “infection of the plants” value in series [2] amounted to 90%; in series [3], 70%.

Regarding `CCc1nc2ncnn2c(N)c1CCc1ccccc1` [I-1, 7-amino-5-ethyl-6-(2-phenylethyl)-(1,2,4)-triazolo-(1,5-a)-pyrimidine], the melting point lay in the range of 210 to 211 °C. For the same compound, in series [1], the “infection of the plants” value is “no infection”.
